Publication PMC5650142, “GPR40 partial agonists and AgoPAMs: Differentiating effects on glucose and hormonal secretions in the rodent” (PLoS ONE, 2017)
“And” between values parts separate entries of the source, which are not always exact repeats. Equal values may be shown once.

Tested on: GK rats
Assay: GK rat chronic efficacy (28 days: glucose, food intake, body weight, GLP-1, GIP, PYY, insulin, glucagon)
Type: in vivo
Set-up: Food Intake Over Time (Fig 3C) / Total Body Weight Change Over Time / Active GLP-1 Levels Over Time: unit not given here
Details: for Total Body Weight Change Over Time / Active GLP-1 Levels Over Time / GIP Levels Over Time / PYY Levels Over Time / Plasma Insulin Over Time: GK rats
Description: At the start of the study, fed (ambient) blood glucose was measured via glucometer at 1 h post lights on, and animals were selected and sorted into treatment groups based on ambient glucose (n = 10/ GK group, n = 6 WKY control). Blood for baseline incretin measurements was collected in the PM via tail vein. Rats were dosed via oral gavage (PO) at a volume of 5 ml/kg daily at approximately 12:30 PM with either vehicle (0.5% methylcellulose), AP1 at 30 mg/kg, or AP3 at 30 mg/kg. MK-8666, a GPR40 partial agonist synthesized at Merck & Co., Inc., Kenilworth, NJ USA [13], at 30 mg/kg was administered in feed (Research Diets, New Brunswick, NJ) and provided ad lib. All compounds were administered to achieve maximal efficacious exposures determined in acute efficacy studies similar to those acute studies described above. In brief, partial agonists and AgoPAMs were titrated in the acute GK rat experiment described above and the exposure associated with maximal efficacy in glucose lowering was noted. Partial agonists and AgoPAMs were then dosed to maintain those exposures up to 24h post dose. […] Rats from this group and the WKY controls were administered vehicle PO when the vehicle, AP1, and AP3 groups were treated. Fed blood glucose, food intake, and body weights were determined on days 10, 17, 23, and 28 of study at 2 h post lights on. Immediately after these measures were taken on days 10, 17, 23, and 28, food was removed. After 5h of fasting, animals were dosed with vehicle or compound and allowed to rest for an additional hour. Glucose, GLP-1, GIP, and PYY were measured after 6h of fasting at 1 hr post dose. Fed blood glucose is described by animals having had ad libidum access to feed up till the time of sampling and occurred at 2h post-lights on where rats were nearing the end of their nocturnal feeding cycle. Fasted blood glucose is described by blood glucose sampled after 6h of fasting where food was removed at 2h post lights on. Please note that the fasted sample was taken 1h post oral dosing. On day 10, blood was collected from the tail vein (20 μl) after morning glucose measures and after 6 hour fast from a subset of n = 3 rats per treatment group to determine the fed and fasted exposure of the compounds in circulation. The blood was stored at 4°C in 0.1 M sodium citrate for subsequent analysis of drug exposure.
Blood for insulin, glucagon, GLP-1, GIP, and PYY measurements was collected into K2EDTA Microtainer tubes (BD, Franklin Lakes, NJ) pre-treated with DPP4 inhibitor (Millipore, Billerica, MA) and cOmplete™ Protease Inhibitor Cocktail Tablets (Roche Diagnostics, Indianapolis, IN). Tubes were centrifuged for 10 minutes at 5000 RPM, and plasma was aliquotted for analysis. Plasma insulin levels were measured via EIA (Mesoscale Discovery ELISA Kit, Gaithersburg MD). Rat plasma total GLP-1 was measured using Total GLP-1 (ver.2) Assay Kit (Cat#: K150JVC). The measurement of active GLP-1 was carried out in a similar manner as that described for total GLP-1 assay with the exception that MSD Active GLP-1 (ver. 2) assay kit (Cat# K150JWC) was used. Rat plasma glucagon was measured using an in-house glucagon assay developed as a MSD format sandwich immunoassay (Merck & Co., Inc., MRL, Kenilworth, NJ USA). The antibody specificity was cross validated via mass- spec using procedures described in Lee et al. Briefly, MSD Streptavidin Gold plates were coated with 2 μg/ml biotin mouse monoclonal antibody generated to glucagon. Test samples were added to the plates and a separate Sulfo- tagged monoclonal antibody was used to detect the captured glucagon protein (2 μg/ml). The ELISA was carried out in the standard reagents in the MSD format. The plate was read on the SECTOR Imager 6000 Reader. Metabolic hormones GIP (Gastric Inhibitory Polypeptide) and PYY (Peptide YY) were measured in rat plasma using the Rat Metabolic Magnetic Bead Panel (EMD Millipore, Billerica, MA). The assay was performed according to manufacturer protocol. […]

[1] = 30 mpk, Day 0, individual animals (Fig 3D)
[2] = 30 mpk, Day 0, individual animals (Fig 4B), 30 mg/kg
[3] = 30 mpk, Day 0, individual animals (Fig 5A), 30 mg/kg
[4] = 30 mpk, Day 10, individual animals (Fig 3D), 30 mg/kg
[5] = 30 mpk, Day 10, individual animals (Fig 4B), 30 mg/kg
[6] = 30 mpk, Day 10, individual animals (Fig 4C), 30 mg/kg, in pg/mL (unit assumed)
[7] = 30 mpk, Day 10, individual animals (Fig 4D), 30 mg/kg, in pg/mL (unit assumed)
[8] = 30 mpk, Day 10, individual animals (Fig 5A), 30 mg/kg
[9] = 30 mpk, Day 17, individual animals (Fig 3D), 30 mg/kg
[10] = 30 mpk, Day 17, individual animals (Fig 4B), 30 mg/kg
[11] = 30 mpk, Day 17, individual animals (Fig 4C), 30 mg/kg, in pg/mL (unit assumed)
[12] = 30 mpk, Day 17, individual animals (Fig 4D), 30 mg/kg, in pg/mL (unit assumed)
[13] = 30 mpk, Day 17, individual animals (Fig 5A), 30 mg/kg
[14] = 30 mpk, Day 23, individual animals (Fig 3D), 30 mg/kg
[15] = 30 mpk, Day 28, individual animals (Fig 3D), 30 mg/kg
[16] = 30 mpk, Day 28, individual animals (Fig 4B), 30 mg/kg
[17] = 30 mpk, Day 28, individual animals (Fig 4C), 30 mg/kg, in pg/mL (unit assumed)
[18] = 30 mpk, Day 28, individual animals (Fig 4D), 30 mg/kg, in pg/mL (unit assumed)
[19] = 30 mpk, Day 28, individual animals (Fig 5A), 30 mg/kg

Structure (SMILES)	Food Intake Over Time (Fig 3C) (30 mpk, Day 10)	Food Intake Over Time (Fig 3C) (30 mpk, Day 17)	Food Intake Over Time (Fig 3C) (30 mpk, Day 23)	Food Intake Over Time (Fig 3C) (30 mpk, Day 28)	Total Body Weight Change Over Time [1]	Active GLP-1 Levels Over Time [2]	Plasma Insulin Over Time [3]	Total Body Weight Change Over Time [4]	Active GLP-1 Levels Over Time [5]	GIP Levels Over Time [6]	PYY Levels Over Time [7]	Plasma Insulin Over Time [8]	Total Body Weight Change Over Time [9]	Active GLP-1 Levels Over Time [10]	GIP Levels Over Time [11]	PYY Levels Over Time [12]	Plasma Insulin Over Time [13]	Total Body Weight Change Over Time [14]	Total Body Weight Change Over Time [15]	Active GLP-1 Levels Over Time [16]	other results
COc1ccc(F)c(-c2ccc([C@@H]3CCc4ccc([C@H](C5CC5)[C@H](C)C(=O)O)cc4O3)cc2)c1 [AP1]	14.85 and 15.61 and 15.57 and 15.255 and 16.22	15.5286 and 15.8857 and 16.0214 and 17.2929 and 17.7357	16.8417 and 19.1417 and 18.7583 and 18.725 and 18.4	16.96 and 17.9 and 19.14 and 19.07 and 19.25	0	1.001 and 1.9298 and 1.3237 and 1.012 and 1.8577 and 2.191 and 1.713 and 1.556 and 0.8866 and 1.073	1.323 ng/mL and 1.278 ng/mL and 2.387 ng/mL and 1.318 ng/mL and 1.715 ng/mL and 1.561 ng/mL and 2.638 ng/mL and 2.341 ng/mL and 1.122 ng/mL and 2.349 ng/mL	10 and 3 (2×) and 13 and 6 and 2 (3×) and -13 and 5	10.3955 and 6.299 and 7.593 and 12.0213 and 6.042 and 7.2 and 9.814 and 9.197 and 8.5449 and 7.4703	505.7 and 493.84 and 467.75 and 217.82 and 519.4 and 141.67 and 384.6 and 413 and 296.23 and 81.09	253.19 and 328.35 and 279.77 and 271.66 and 270.68 and 232.37 and 216.99 and 227.15 and 181.2 and 198.89	1.155 ng/mL and 0.724 ng/mL and 1.551 ng/mL and 0.8718 ng/mL and 1.112 ng/mL and 0.8329 ng/mL and 1.613 ng/mL and 0.7139 ng/mL and 1.088 ng/mL and 1.543 ng/mL	18 (2×) and 8 and 24 and 16 and 0 and 7 and -9 and 10 and 9	8.6 and 3.38 and 5.23 and 6.69 and 6.32 and 4.97 and 3.57 and 4.69 and 6.47 and 5.55	378.278 and 410.03 and 370.39 and 471.66 and 268.89 and 337.14 and 352.79 and 447.92 and 402.03	228.528 and 168.33 and 149.79 and 211.65 and 178.66 and 141.57 and 165.72 and 207.01 and 161.08	1.312 ng/mL and 1.435 ng/mL and 1.262 ng/mL and 0.9925 ng/mL and 0.7824 ng/mL and 0.7213 ng/mL and 1.004 ng/mL and 1.148 ng/mL and 1.876 ng/mL and 2.528 ng/mL	24 and 11 and 37 and 25 and 27 and 22 and 16 and -6 and 9 and 12	32 and 14 and 36 and 27 and 34 and 30 and 23 and 3 and 20 and 21	4.803 and 5.789 and 8.538 and 7.972 and 5.7178 and 6.58 and 6.497 and 8.013 and 7.134 and 7.267	Fed glucose on day 28 (Fig 3B) (30 mpk, day 28, fed, individual animals): 126 and 113 and 121 and 107 and 114 and 98 and 108 and 105 and 131; fed blood glucose vs partial agonist MK-8666 (GK rat, 30 mg/kg, day 28): significantly reduced; GIP Levels Over Time (30 mpk, Day 0, individual animals (Fig 4C), 30 mg/kg, in pg/mL (unit assumed)): 80.27 and 43.35 and 55.2 and 66.33 and 82.49 and 41.1 and 77.69 and 54.81 and 38.69 and 31.07; PYY Levels Over Time (30 mpk, Day 0, individual animals (Fig 4D), 30 mg/kg): 60.82 and 59.71 and 48.43 and 38.89 and 91.83 and 69.38 and 126.38 and 46.38 (2×) and 80.42; GIP Levels Over Time [17]: 265.13 and 306.48 and 225.82 and 160.64 and 220.15 and 277.09 and 298.29 and 238.76 and 210.52 and 175.96; PYY Levels Over Time [18]: 152.15 and 162.1 and 214.06 and 98.83 and 138.17 and 173.94 and 241.37 and 220.84 and 169.14 and 119.76; Plasma Insulin Over Time [19]: 1.27 ng/mL and 1.377 ng/mL and 1.276 ng/mL and 0.4335 ng/mL and 1.675 ng/mL and 1.248 ng/mL and 2.339 ng/mL and 0.9305 ng/mL and 0.8869 ng/mL and 1.165 ng/mL
C[C@H](C(=O)O)[C@H](c1ccc2c(c1)O[C@H](C1CN(Cc3cc(C(F)(F)F)ccc3C(F)(F)F)C1)CC2)C1CC1 [AP3]	15.815 and 14.78 and 14.855 and 15.07 and 14.37	16.6286 and 16.6643 and 16.8143 and 16.8286 and 16.8071	18.5083 and 18.3917 and 17.85 and 19.125 and 17.525	17.91 and 18.83 and 18.78 and 18.96 and 19.28	0	1.077 and 2.563 and 1.567 and 0.8713 and 1.148 and 1.431 and 1.186 and 1.3237 and 1.438 and 1.6108	1.29 ng/mL and 1.017 ng/mL and 1.844 ng/mL and 1.516 ng/mL and 2.832 ng/mL and 2.437 ng/mL and 2.602 ng/mL and 2.286 ng/mL and 2.384 ng/mL and 3.155 ng/mL	11 and 17 and 1 (4×) and 8 and 2 and -5 and -10	10.2264 and 10.1136 and 9.093 and 7.341 and 9.911 and 6.136 and 9.947 and 8.858 and 9.564 and 4.836	131.59 and 538.63 and 268.56 and 356.56 and 280.21 and 297.28 and 251.81 and 343.6 and 366.22 and 226.85	327.63 and 434.04 and 220.17 and 263.06 and 264.64 and 198.53 and 67.33 and 282.5 and 263.78 and 239.29	0.805 ng/mL and 1.032 ng/mL and 1.336 ng/mL and 1.205 ng/mL and 1.609 ng/mL and 1.271 ng/mL and 0.3056 ng/mL and 1.028 ng/mL and 1.285 ng/mL and 1.24 ng/mL	17 and 22 and 6 (2×) and 19 and 5 and 10 and 7 and 3 and 4	8.7 and 6.18 and 9.28 and 4.41 and 6.22 and 9.2 and 7.03 and 4.78 and 4.82 and 5.22	453.42 and 366.18 and 475.48 and 267.46 and 451.8 and 353.69 and 400.36 and 407.49 and 350.93	179 and 263.66 and 236.63 and 203.98 and 272.19 and 278.33 and 130.51 and 189.28 and 188.49	0.5609 ng/mL and 0.9183 ng/mL and 0.2807 ng/mL and 1.641 ng/mL and 1.961 ng/mL and 1.708 ng/mL and 1.453 ng/mL and 0.6985 ng/mL and 1.1926 ng/mL and 1.855 ng/mL	28 and 34 and 22 and 15 and 18 and 7 and 14 and 17 and 6 and 4	30 and 36 and 25 and 20 and 21 and 10 and 19 and 22 and 14 (2×)	7.945 and 6.4879 and 5.324 and 10.6145 and 8.6355 and 6.965 and 4.915 and 7.012 and 6.997 and 8.043	GIP Levels Over Time (30 mpk, Day 0, individual animals (Fig 4C), 30 mg/kg): 64.6 and 61.42 and 49.69 and 65.31 and 46.23 (2×) and 37.69 and 48.72 and 40.59 and 29.52; PYY Levels Over Time (30 mpk, Day 0, individual animals (Fig 4D), 30 mg/kg, in pg/mL (unit assumed)): 45.68 and 75.54 and 74.62 and 61.64 and 36.39 and 74.15 and 136.82 and 43.52 and 46.38 and 67.65; GIP Levels Over Time [17]: 257.43 and 223.283 and 216.92 and 196.33 and 188.58 and 171.99 and 248.64 and 189.72 and 162.6 and 177.95; PYY Levels Over Time [18]: 237.97 and 76.0833 and 195.93 and 219.09 and 189.97 and 176.63 and 223.29 and 158.15 and 160.92 and 153.75; Plasma Insulin Over Time [19]: 0.8153 ng/mL and 0.3115 ng/mL and 0.9427 ng/mL and 0.8881 ng/mL and 1.431 ng/mL and 0.8809 ng/mL and 1.428 ng/mL and 1.376 ng/mL and 1.352 ng/mL and 1.27 ng/mL
